In patent US20210186972A1, “FORMULATIONS AND METHODS FOR THE PREVENTION AND TREATMENT OF TUMOR METASTASIS AND TUMORIGENESIS” (THE UNITED STATES OF AMERICA, AS REPRESENTED BY THE …, priority 2018, published 2021):
Like-named read-outs stand apart in the source and are kept apart here.

Assays:
PC3M cells [1] = assay: 24-well Transwell MATRIGEL invasion assay, PC3M; assay type: cell-based, human; details: 0.6 μM, within 24 hours
Procedure: FIG. 3 is a bar graph showing that metarrestin inhibits MATRIGEL gelatinous protein mixture (BD Biosciences, Franklin Lakes, N.J.) invasion at below micromolar concentrations (0.6 μM) within 24 hours of treatment (* p<0.05 and ** p<0.01 in comparison to DMSO [control]). The invasion (%) is on the y-axis and the metarrestin [microM] is on the x-axis. The cell line PC3M is shown in white bars and the cell line PANC1 (human pancreas) is shown in black bars.
24-well Transwell Permeable MATRIGEL gelatinous protein mixture Invasion assay: The effect of metarrestin on invasion activity of PANC1 and PC3M cells was measured using 24-well Transwell Permeable MATRIGEL gelatinous protein mixture Invasion Chambers with 8 μm pores (Corning, Cat #354480). Membranes were rehydrated with 500 μL of serum-free DMEM (Thermo Fisher, Cat #11965084) both inside the chamber and inside the well and incubated for two hours at 37° C., 5% CO2. Cells were detached, washed, resuspended in serum-free DMEM, counted, and diluted to a final concentration of 1×10^5 cells/mL in six separate 15 mL conical tubes. […] 750 μL of DMEM plus 10% FBS acting as a chemoattractant were placed in the basal wells. Plates were incubated at 37° C., 5% CO2 for 24 hours. […]

[2] = tested on: patient-derived breast cancer xenotransplantation model (PDX); assay: Patient-derived breast cancer xenotransplantation model (PDX); assay type: in vivo; details: 25 mg/kg IP, 5-day on and 2-day off, 4 weeks
Procedure: Metarrestin was tested in PC3M xenograft mice to determine whether metarrestin's anti-metastasis activity (observed in the NSG PANC1 mice and in vitro pan-cancer PNC suppression) translates into anti-metastasis activity in additional cancer models. Two weeks after subcutaneous implantation of PC3M cells, mice were started on 5 mg/kg or 25 mg/kg metarrestin or vehicle by daily IP injection for 4 additional weeks. Tumor progression was tracked by both in vivo imaging systems (“IVIS”) spectroscopy and tumor volume. Metastasis to the lungs was evaluated ex vivo through IVIS spectroscopy and by histopathology at the experimental endpoint. […] To evaluate the effect of metarrestin on a malignant xenograft considered closest to in vivo conditions, a patient-derived breast cancer xenotransplantation model (PDX) was used. […] Tumor size and total body weight were measured twice a week, and tumor weight was measured at experimental end-point.
Breast cancer model: The model derived from 0.2 liter of pleural effusion from a breast cancer patient (model #373342). These cancer cells had metastasized to the lung pleura from the initial tumor detected in the breast. […] Tumor size and total body weight were measured twice a week.

eEF1A = assay: Cellular thermal shift assay (CETSA); assay type: binding; details: PC3M cell lysate
Description: DMSO is the top panel and metarrestin is the bottom panel.

C57B/L6 = assay type: in vivo, mice
PC3M cells [3] = assay: Cell growth (INCUCYTE confluence), PC3M; assay type: cell-based, human
Description: The confluence (%) is on the y-axis and the time (in hours) is on the x-axis. The top most line is GM02153-DMSO, the second line from the top is PC3M-DMSO, the third line from the top is GM02153-metarrestin, and the bottom line is PC3M-metarrestin.

[4] = female, C57B/L6, mouse, in vivo
[5] = female, C57B/L6, mouse, in vivo, 3 months
[6] = male, C57B/L6, mouse, in vivo, 3 months

For `N=c1c2c(-c3ccccc3)c(-c3ccccc3)n(Cc3ccccc3)c2ncn1[C@H]1CC[C@H](O)CC1` [metarrestin], the “Invasion of PC3M cells” value (PC3M cells [1]) was “effectively blocked the invasion”, the PDX growth [2] was “effectively inhibited the PDX growth” and the “Tolerability (body weight and behavior)” value [2] was “well-tolerated”. For the same compound, the “Aggregation temperature of eEF1A” value (eEF1A) was “increase in the aggregation temperature of eEF1A”, the “Kidney regeneration, tubule” value (C57B/L6; C57B/L6 Metarrestin Female F03) was 1/4 and the Brain hemorrhage (C57B/L6; C57B/L6 Metarrestin Male M03) was 1/4. The Epididymis aspermia (C57B/L6; C57B/L6 Metarrestin Male M03) was 1/4, the “Kidney regeneration, tubule” value (C57B/L6; C57B/L6 Metarrestin Male M03) was 3/4 and the “Gall Bladder inflammation, acute” value (C57B/L6; [4]) was 3/4. The “Ileum segmented filamentous bacteria” value (C57B/L6; [4]) was 3/4, the “Adrenal hyperplasia, subcapsular cell” value (C57B/L6; [5]) was 3/4 and the “Kidney dilatation, tubule” value (C57B/L6; [5]) was 3/4. For the same compound, the Kidney infarct (C57B/L6; [5]) was 1/4, the Kidney mineralization (C57B/L6; [5]) was 2/4 and the “Liver inflammation, subacute” value (C57B/L6; [5]) was 4/4. The Lung lymphocytic infiltrate (C57B/L6; [5]) was 4/4, the “Spleen extramedullary hematopoiesis, erythrocytic, increased erythropoiesis” value (C57B/L6; [5]) was 2/4 and the Cecum proliferative typhlitis (C57B/L6; male, C57B/L6, mouse, in vivo) was 1/4. For the same compound, the “Femur marrow hyperplasia, granulocytic” value (C57B/L6; male, C57B/L6, mouse, in vivo) was 1/4, the “Gall Bladder inflammation, acute” value (C57B/L6; male, C57B/L6, mouse, in vivo) was 3/4 and the Heart mineralization (C57B/L6; male, C57B/L6, mouse, in vivo) was 1/4. For the same compound, the Adrenal lipogenic pigment (C57B/L6; [6]) was 4/4, the “Ileum segmented filamentous bacteria” value (C57B/L6; [6]) was 3/4 and the “Kidney dilatation, tubule” value (C57B/L6; [6]) was 2/4. For the same compound, the Kidney mineralization (C57B/L6; [6]) was 2/4, the “Kidney vacuolation. proximal tubule” value (C57B/L6; [6]) was 1/4 and the “Liver inflammation, subacute” value (C57B/L6; [6]) was 3/4. For the same compound, the Lung lymphocytic infiltrate (C57B/L6; [6]) was 3/4, the Spleen melanin (C57B/L6; [6]) was 1/4 and the “Testis degeneration, seminiferous tubule” value (C57B/L6; [6]) was 1/4. For the same compound, the Thymus cyst (C57B/L6; [6]) was 1/4, the “Vertebra hyperplasia, granulocytic, marrow” value (C57B/L6; [6]) was 1/4 and the PC3M cell growth (PC3M cells [3]; 0.6 μM, after 24 hours of treatment) was “did not affect PC3M or PANC1 cell growth”. For the same compound, the “Cell growth in PC3M cancer cells” value (PC3M cells [3]; 1 μM, extended time, INCUCYTE) was “preferentially inhibited cell growth”.
